# Molecular target: T1, FSHR (Homo sapiens, UniProt P23945)
# T1 construct: expressed in transfected cells; host or cells: CHO cells, clone Cho-FSHR-LUC-1-1-43
# T1 sequence (P23945 18-695): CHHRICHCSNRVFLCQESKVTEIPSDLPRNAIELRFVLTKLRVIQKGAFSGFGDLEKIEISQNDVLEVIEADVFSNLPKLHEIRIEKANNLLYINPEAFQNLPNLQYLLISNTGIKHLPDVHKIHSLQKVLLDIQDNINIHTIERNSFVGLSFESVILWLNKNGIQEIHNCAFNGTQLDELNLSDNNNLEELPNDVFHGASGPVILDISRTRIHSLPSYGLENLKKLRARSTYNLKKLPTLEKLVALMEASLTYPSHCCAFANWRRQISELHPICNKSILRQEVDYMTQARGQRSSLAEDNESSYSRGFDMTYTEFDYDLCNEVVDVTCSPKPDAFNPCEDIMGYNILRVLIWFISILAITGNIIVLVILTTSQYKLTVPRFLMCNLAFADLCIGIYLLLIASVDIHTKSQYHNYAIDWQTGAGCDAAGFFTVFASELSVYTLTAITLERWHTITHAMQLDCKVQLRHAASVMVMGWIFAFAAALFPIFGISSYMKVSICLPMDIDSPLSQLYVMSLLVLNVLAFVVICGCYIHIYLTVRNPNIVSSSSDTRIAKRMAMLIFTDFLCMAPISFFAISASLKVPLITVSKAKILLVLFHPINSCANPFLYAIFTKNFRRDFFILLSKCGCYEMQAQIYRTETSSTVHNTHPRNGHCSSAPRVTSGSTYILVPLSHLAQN
# Experiment: EC50 of cyclic AMP production in CHO FSHR cells + EC20 FSH (Assay A)
# Format: cell-based
# Conditions: CHO-FSHR-LUC cells, in presence of EC20 FSH, cAMP HTRF, 1 h 37° C.
# Description: EC50 of cyclic AMP production in CHO FSHR cells+EC20 FSH (Assay A)
# 2500 Cho-FSHR-LUC-1-1-43 cells were plated per well in 5 μl of phenol red free DMEM/F12+1% FBS. […] Cells were assayed by adding 100 μl of 2×EC20 FSH/IBMX in DMEM/F12+0.1% BSA) by Multidrop to 2 μl of test compound stamped in 384 well plates (compounds are diluted 1:50). […] The compound plate map was as follows: Column 1: 2 μl of DMSO; Column 2: 2 μl of DMSO; Columns 3-12 and 13-24: 2 μl of test compound, diluted 1:4 in 100% DMSO, or 2 μl of FSH, diluted 1:4 in DMEM/F12+0.1% BSA. The starting concentration for FSH was 50 nM (final concentration was 0.5 nM). […] 10 μl of mixed HTRF (CisBio #62AM4PEC) reagents were added per well and incubated at room temperature for 1 h. The plates were read on Envision using the cAMP HTRF—low volume 384 well protocol. […] Values given in percent (%) indicate the percental effect (response) at a certain concentration of agonist relative to the maximum response of the FSH standard.
row,Structure (SMILES),EC50 [µM]
1,"COc1cc2c(cc1OC)-n1c(-c3cccs3)nc(C(=O)N(C)C(C)(C)C)c1CC2 [Compound 1, 7,8-Dimethoxy-1-thiophen-2-yl-4,5-dihydro-imidazo[1,5-a]quinoline-3-carboxylic acid tert-butyl-methyl-amide]",0.1 to 1
2,"COc1cc2c(cc1OC)-n1c(-c3ccsc3)nc(C(=O)N(C)C(C)(C)C)c1CC2 [Compound 2, 7,8-Dimethoxy-1-thiophen-3-yl-4,5-dihydro-imidazo[1,5-a]quinoline-3-carboxylic acid tert-butyl-methyl-amide]",0.1 to 1
3,COc1cc2c(cc1OC(C)C)-n1c(Br)nc(C(=O)N3CCCN(C(=O)C4CCC4)CC3)c1CC2 [Compound 3],< 0.1
4,"COc1cc2c(cc1OC(C)C)-n1c(Br)nc(C(=O)N(C)C(C)(C)C)c1CC2 [Compound 4, 1-Bromo-8-isopropoxy-7-methoxy-4,5-dihydro-imidazo[1,5-a]quinoline-3-carboxylic acid tert-butyl-methyl-amide]",> 5
5,COc1cc2c(cc1OC(C)C)-n1c(-c3ccsc3)nc(C(=O)N(C)C(C)(C)C)c1CC2 [Compound 5],0.1 to 1
6,"COc1cc2c(cc1-c1cccnc1)-n1c(-c3ccsc3)nc(C(=O)N(C)C(C)(C)C)c1CC2 [Compound 8, 7-Methoxy-8-pyridin-3-yl-1-thiophen-3-yl-4,5-dihydro-imidazo[1,5-a]quinoline-3-carboxylic acid tert-butyl-methyl-amide]",< 0.1
7,COc1cc2c(cc1OC(C)C)-n1c(-c3cncs3)nc(C(=O)N3CCCN(C(=O)N4CCC4)CC3)c1CC2 [Compound 9],1 to 5
8,COc1cc2c(cc1OC(C)C)-n1c(-c3ccsc3)nc(C(=O)N3CCCN(C(=O)N4CCC4)CC3)c1CC2 [Compound 10],0.1 to 1
9,"COc1cc2c(cc1CC(C)C)-n1c(-c3cc[nH]n3)nc(C(=O)N(C)C(C)(C)C)c1CC2 [Compound 12, 8-Isobutyl-7-methoxy-1-(1H-pyrazol-3-yl)-4,5-dihydro-imidazo[1,5-a]quinoline-3-carboxylic acid tert-butyl-methyl-amide]",> 5
10,COc1cc2c(cc1OC(C)C)-n1c(-c3ccncc3)nc(C(=O)N(C)C(C)(C)C)c1CC2 [Compound 13],> 5
11,COc1cc2c(cc1OC(C)C)-n1c(-c3ccc(F)s3)nc(C(=O)N(C)C(C)(C)C)c1CC2 [Compound 14],< 0.1
12,COc1cc2c(cc1OC(C)C)-n1c(-c3ccn(C)c3)nc(C(=O)N(C)C(C)(C)C)c1CC2 [Compound 15],0.1 to 1
13,COc1cc2c(cc1OC(C)C)-n1c(-c3cnc(C)s3)nc(C(=O)N(C)C(C)(C)C)c1CC2 [Compound 16],1 to 5
14,"COc1cc2c(cc1CC(C)C)-n1c(-c3cccs3)nc(C(=O)N(C)C(C)(C)C)c1CC2 [Compound 17, 8-Isobutyl-7-methoxy-1-thiophen-2-yl-4,5-dihydro-imidazo[1,5-a]quinoline-3-carboxylic acid tert-butyl-methyl-amide]",< 0.1
15,"COc1cc2c(cc1CC(C)C)-n1c(-c3ccsc3)nc(C(=O)N(C)C(C)(C)C)c1CC2 [Compound 18, 8-Isobutyl-7-methoxy-1-thiophen-3-yl-4,5-dihydro-imidazo[1,5-a]quinoline-3-carboxylic acid tert-butyl-methyl-amide]",0.1 to 1
16,"COc1cc2c(cc1CC(C)C)-n1c(-c3cccs3)nc(C(=O)N3CCOCC3(C)C)c1CC2 [Compound 20, (3,3-Dimethyl-morpholin-4-yl)-(8-isobutyl-7-methoxy-1-thiophen-2-yl-4,5-dihydro-imidazo[1,5-a]quinolin-3-yl)-methanone]",< 0.1
17,"COc1cc2c(cc1CC(C)C)-n1c(C3CCN(C)CC3)nc(C(=O)N(C)C(C)(C)C)c1CC2 [Compound 22, N-(tert-butyl)-8-isobutyl-7-methoxy-N-methyl-1-(1-methylpiperidin-4-yl)-4,5-dihydroimidazo[1,5-a]quinoline-3-carboxamide]",1 to 5

# Other lines, results leading:
row,EC50 [µM],Structure (SMILES)
1,1 to 5,"COc1cc2c(cc1CC(C)C)-n1c(-c3cn[nH]c3)nc(C(=O)N(C)C(C)(C)C)c1CC2 [Compound 23, 8-Isobutyl-7-methoxy-1-(1H-pyrazol-4-yl)-4,5-dihydro-imidazo[1,5-a]quinoline-3-carboxylic acid tert-butyl-methyl-amide]"
2,1 to 5,"COc1cc2c(cc1CC(C)C)-n1c(-c3cccs3)nc(C(=O)NC(C)(C)CO)c1CC2 [Compound 24, 8-Isobutyl-7-methoxy-1-thiophen-2-yl-4,5-dihydro-imidazo[1,5-a]quinoline-3-carboxylic acid (2-hydroxy-1,1-dimethyl-ethyl)-amide]"
3,1 to 5,"COc1cc2c(cc1CC(C)C)-n1c(-c3cccn3C(=O)OC(C)(C)C)nc(C(=O)N3CCOCC3(C)C)c1CC2 [Compound 26, 2-[3-(3,3-Dimethyl-morpholine-4-carbonyl)-8-isobutyl-7-methoxy-4,5-dihydro-imidazo[1,5-a]quinolin-1-yl]-pyrrole-1-carboxylic acid tert-butyl ester]"
4,1 to 5,"COc1cc2c(cc1CC(C)C)-n1c(-c3cn[nH]c3C)nc(C(=O)N3CCOCC3(C)C)c1CC2 [Compound 27, (3,3-Dimethyl-morpholin-4-yl)-[8-isobutyl-7-methoxy-1-(5-methyl-1H-pyrazol-4-yl)-4,5-dihydro-imidazo[1,5-a]quinolin-3-yl]-methanone]"
5,0.1 to 1,"COc1cc2c(cc1CC(C)C)-n1c(-c3cc[nH]c3)nc(C(=O)N3CCOCC3(C)C)c1CC2 [Compound 28, (3,3-Dimethyl-morpholin-4-yl)-[8-isobutyl-7-methoxy-1-(1H-pyrrol-3-yl)-4,5-dihydro-imidazo[1,5-a]quinolin-3-yl]-methanone]"
6,0.1 to 1,"COc1cc2c(cc1CC(C)C)-n1c(-c3ccn(C)n3)nc(C(=O)N3CCOCC3(C)C)c1CC2 [Compound 29, (3,3-Dimethyl-morpholin-4-yl)-[8-isobutyl-7-methoxy-1-(1-methyl-1H-pyrazol-3-yl)-4,5-dihydro-imidazo[1,5-a]quinolin-3-yl]-methanone]"
7,> 5,"[2H]C([2H])([2H])OC1CCN(C(=O)c2nc(-c3cccs3)n3c2CCc2cc(OC)c(CC(C)C)cc2-3)C1 (stereo not shown) [Compound 33, (8-Isobutyl-7-methoxy-1-thiophen-2-yl-4,5-dihydro-imidazo[1,5-a]quinolin-3-yl)-(3-methoxy-d3-pyrrolidin-1-yl)-methanone]"
8,> 5,COc1cc2c(cc1OC(C)C)-n1c(-c3cnn(C)c3C)nc(C(=O)N3CCOCC3(C)C)c1CC2 [Compound 35]
9,> 5,COc1cc2c(cc1OC(C)C)-n1c(-c3cn(C)nc3C)nc(C(=O)N3CCOCC3(C)C)c1CC2 [Compound 36]
10,> 5,COc1cc2c(cc1OC(C)C)-n1c(-c3c(C)nn(C)c3C)nc(C(=O)N3CCOCC3(C)C)c1CC2 [Compound 37]
11,1 to 5,COc1cc2c(cc1OC(C)C)-n1c(-c3cccnc3)nc(C(=O)N3CCOCC3(C)C)c1CC2 [Compound 39]
12,1 to 5,COc1cc2c(cc1OC(C)C)-n1c(-c3ccnn3C)nc(C(=O)N3CCOCC3(C)C)c1CC2 [Compound 40]
13,0.1 to 1,COc1cc2c(cc1OC(C)C)-n1c(-c3cc(C)nn3C)nc(C(=O)N3CCOCC3(C)C)c1CC2 [Compound 42]
14,> 5,COc1cc2c(cc1OC(C)C)-n1c(-c3ccn(C)n3)nc(C(=O)N3CCOCC3(C)C)c1CC2 [Compound 43]
15,0.1 to 1,COc1cc2c(cc1OC(C)C)-n1c(-c3cncnc3)nc(C(=O)N3CCOCC3(C)C)c1CC2 [Compound 45]
16,> 5,COc1cc2c(cc1OC(C)C)-n1c(-c3cn(C)cn3)nc(C(=O)N3CCOCC3(C)C)c1CC2 [Compound 46]
17,> 5,COc1cc2c(cc1OC(C)C)-n1c(-c3cncn3C)nc(C(=O)N3CCOCC3(C)C)c1CC2 [Compound 47]
18,1 to 5,"COc1cc2c(cc1CC(C)C)-n1c(-c3cccs3)nc(C(=O)NCCNC(C)=O)c1CC2 [Compound 48, 8-Isobutyl-7-methoxy-1-thiophen-2-yl-4,5-dihydro-imidazo[1,5-a]quinoline-3-carboxylic acid (2-acetylamino-ethyl)-amide]"
19,0.1 to 1,COc1cc2c(cc1OC(C)C)-n1c(C3=CCCCO3)nc(C(=O)N3CCOCC3(C)C)c1CC2 [Compound 50]
20,1 to 5,COC/C=C/c1nc(C(=O)N2CCOCC2(C)C)c2n1-c1cc(OC(C)C)c(OC)cc1CC2 [Compound 51]
